# Measured values taken from patent publication US20030220482A1, “Novel peptide antagonist of CXCR4 derived from the N-terminus of the viral chemokine vMIP-II” (priority 2000, published 2003).
# Entries after “also recorded” stand apart in the source; their conditions may differ. Peptide text beside a SMILES is read from it.
# Columns and labels:
# CXCR4 [1] = molecular target: T1, CXCR4 (Homo sapiens, UniProt P61073); assay: Intracellular calcium influx in Sup T1 cells; type: cell-based; parameters: endogenous in cells
# T1 sequence (P61073 whole entry): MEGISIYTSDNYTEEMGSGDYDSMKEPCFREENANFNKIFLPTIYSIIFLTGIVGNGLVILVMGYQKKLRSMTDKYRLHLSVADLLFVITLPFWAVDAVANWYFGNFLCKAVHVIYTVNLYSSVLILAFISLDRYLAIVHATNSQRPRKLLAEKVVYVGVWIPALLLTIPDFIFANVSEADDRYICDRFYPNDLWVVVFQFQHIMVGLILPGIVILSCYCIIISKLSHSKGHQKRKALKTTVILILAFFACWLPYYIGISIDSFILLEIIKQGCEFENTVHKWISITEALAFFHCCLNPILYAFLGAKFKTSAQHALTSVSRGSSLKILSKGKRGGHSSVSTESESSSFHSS
# Description: (§1) Sup T1 cells and CCR5 transfected 293 cells were used to measure the intracellular calcium influx. [Ca^2+]i was measured using excitation at 340 and 380 nm on a fluorescence spectrometer (Perkin Elmer LS50). Calibration was performed using 10% Triton X-100 for total fluorophore release and 0.5 M EGTA to chelate free Ca^2+. Intracellular Ca^2+ concentrations were calculated by using the fluorescence spectrometer measurement program.
# CCR5 [2] = molecular target: T2, CCR5 (Homo sapiens, UniProt P51681); assay: 125I-MIP-1β competitive binding to CCR5 (CCR5-transfected 293 cells); conditions: competitive binding with radiolabeled MIP-1β
# T2 construct: expressed in transfected cells; host or cells: 293 cells
# T2 sequence (P51681 whole entry): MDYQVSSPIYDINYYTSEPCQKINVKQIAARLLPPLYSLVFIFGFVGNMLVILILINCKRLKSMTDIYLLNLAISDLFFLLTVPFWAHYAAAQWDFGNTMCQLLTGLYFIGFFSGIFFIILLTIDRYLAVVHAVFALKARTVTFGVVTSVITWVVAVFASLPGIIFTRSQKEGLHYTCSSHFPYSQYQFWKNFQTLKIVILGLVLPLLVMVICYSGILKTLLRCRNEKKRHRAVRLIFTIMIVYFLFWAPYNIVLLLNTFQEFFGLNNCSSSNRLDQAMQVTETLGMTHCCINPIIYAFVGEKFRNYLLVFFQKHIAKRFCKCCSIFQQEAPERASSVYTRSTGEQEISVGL
# Excerpt: ^125I-MIP-1β Competitive Binding to CCR5
# Following a similar experimental procedure as described above, 293 cells transfected with CCR5 and ^125I-MIP-1β were used to determine the specific binding activity of peptides to CCR5.
# Sup T1 cells = assay: Chemotaxis of Sup T1 cells induced by SDF-1; type: cell-based
# Description: Migration of Sup T1 cells was assessed in disposable Transwell trays (Costar, Cambridge, Mass.) with 6.5 -mm diameter chambers and membrane pore size of […]. […] For peptide inhibition experiments, the cells were preincubated with various concentrations of the peptide for 15 min at 25° C. The peptide at the same concentration was also added to the lower well. After incubation at 37° C. and 5% CO2 for 4 h, cells that migrated to the lower well were counted. Chemotactic migration was determined by subtraction of cells migrated in medium alone (Blank control experiment).
# CCR5 [3] = molecular target: T2, CCR5; assay: Gene reporter cell-cell fusion assay, HIV-1 coreceptor function of CCR5; type: cell-based
# CXCR4 [4] = molecular target: T1, CXCR4; assay: 125I-SDF-1α competitive binding to CXCR4 (CEM-T4 cells); parameters: endogenous in cells; host or cells: CEM-T4 cells; conditions: for CXCR4 binding (in words): 125I-SDF-1α competitive binding, FIG. 1
# Description: ^125I-SDF-1α Competitive Binding to CXCR4
# CEM-T4 cells were harvested and washed twice with PBS. […] Nonspecific binding was determined by the addition of 100 nM unlabeled SDF-1α Samples were incubated for 60 min at room temperature. The incubation was terminated by separating the cells from the binding buffer by centrifugation and washing once with 500 μl of cold binding buffer. Bound ligands were quantitated by counting γ emissions.
# CXCR4 [5] = molecular target: T1, CXCR4; assay: Gene reporter cell-cell fusion assay, HIV-1 coreceptor function of CXCR4; type: cell-based; parameters: expressed in transfected cells; host or cells: NIH/3T3 cells; conditions: for inhibition of T- and dual-tropic HIV-1 gp120-mediated cell-cell fusion via CXCR4 (in words): vSC60 (BH10) T-tropic and 89.6 dual-tropic isolates
# CXCR4 [6] = molecular target: T1, CXCR4; assay: CXCR4 internalization; type: cell-based; parameters: CEM-T4 cells were harvested and washed twice with PBS; endogenous in cells; host or cells: CEM-T4 cells
# CCR5 [7] = molecular target: T2, CCR5; assay: Intracellular calcium influx in CCR5 transfected 293 cells; type: cell-based
# Description: as §1
# CXCR4 [8] = molecular target: T1, CXCR4; assay: anti-CXCR4 mAb 12G5 competitive binding (flow cytometry, Sup T1 cells); parameters: endogenous in cells; conditions: relative to SDF-1
# Description: Sup T1 cells (2×10^5) were washed with FACS buffer (0.5% bovine serum albumin, 0.05% sodium azide in PBS) and incubated with an anti-CXCR4 monoclonal antibody (mAb) 12G5 (10 μg/ml) for 30 min at 4° C. After washing with FACS buffer, cells were incubated with 10 μg FITC conjugated goat anti-mouse IgG (Southern Biotechnology Associates, Inc. Birmingham, Ala.) for 30 min at 4° C. After washing twice with FACS buffer, cells were fixed in the fixing buffer (2% palaformaldehyde in PBS) and then analyzed on a FACScan flow cytometer (Coulter EPICS Elite, Coolten Corp., Hialeah, Fla.).
molecule,measurement,setting,value
CC(C)C[C@H](NC(=O)[C@H](CS)NC(=O)[C@H](CS)NC(=O)[C@H](CCCCN)NC(=O)[C@H](CC(=O)O)NC(=O)[C@@H]1CCCN1C(=O)[C@H](CCCNC(=N)N)NC(=O)[C@H](Cc1c[nH]cn1)NC(=O)[C@H](Cc1c[nH]c2ccccc12)NC(=O)[C@H](CO)NC(=O)[C@H](C)NC(=O)CNC(=O)[C@@H](N)CC(C)C)C(=O)NCC(=O)N[C@@H](Cc1ccc(O)cc1)C(=O)N[C@@H](CCC(N)=O)C(=O)N[C@@H](CCCCN)C(=O)N[C@@H](CCCNC(=N)N)C(=O)N1CCC[C@H]1C(=O)N[C@@H](CC(C)C)C(=O)N1CCC[C@H]1C(N)=O [V1] (H-LGASWHRPDKCCLGYQKRPLP-NH2; N-terminus and C-terminus assumed),"blocking of SDF-1 signal (calcium influx, in words)","CXCR4 [1]; peptide 200 μM, SDF-1 100 nM",almost completely blocked SDF-1 signal
same,"signaling activity via CXCR4 (calcium influx, in words)",CXCR4 [1]; various concentrations,did not show any signaling activity
same,CCR5 binding (in words),CCR5 [2],did not display any interaction
same,inhibition of chemotactic activity of SDF-1 (in words),Sup T1 cells,inhibit the chemotactic activity of SDF-1 in a concentration dependent manner
same,effect on M-tropic HIV-1 gp120-mediated cell-cell fusion via CCR5 (in words),CCR5 [3],displayed no effect
same,"fold less potent than SDF-1, 125I-SDF-1α competition",CXCR4 [4]; relative to SDF-1,~70 fold
same,inhibition of T- and dual-tropic HIV-1 gp120-mediated cell-cell fusion via CXCR4 (in words),CXCR4 [5],showed inhibition
same,induction of CXCR4 internalization (in words),CXCR4 [6],induction of CXCR4 internalization
same,"signaling activity via CCR5 (calcium influx, in words)",CCR5 [7],neither displayed signaling activity
same,blocking of signal induced by MIP-1β via CCR5 (in words),CCR5 [7]; MIP-1β 100 nM,nor blocked the signal
same,"fold less potent than SDF-1, mAb 12G5 competition",CXCR4 [8],about 33 fold
"HRPDKCCLGYQKR (v-MIPII derived peptide) [V2, VMIP-II, 6-18]",effect on CXCR4 signal transduction (in words),CXCR4 [1],did not show any effect
same,CCR5 binding (in words),CCR5 [2],does not bind
same,effect on M-tropic HIV-1 gp120-mediated cell-cell fusion via CCR5 (in words),CCR5 [3],displayed no effect
same,CXCR4 binding (in words),CXCR4 [4],significant loss in CXCR4 binding; also recorded: does not bind
same,inhibition of T- and dual-tropic HIV-1 gp120-mediated cell-cell fusion via CXCR4 (in words),CXCR4 [5],did not show any activity
same,effect on CCR5 signal transduction (in words),CCR5 [7],did not show any effect
"LGASWHRPDK (v-MIPII derived peptide) [V3, VMIP-II, 1-10]",CXCR4 binding (in words),CXCR4 [4],retained some activity
"SDF-1: Recombinant human chemokine, Stromal cell Derived Factor-1, a natural CXCR4 ligand, used as control [reference compound]",inhibition of cell-cell fusion,CXCR4 [5]; at 200 nM,45%
